How the values were obtained:
[1] = 6-week DEXA body composition analysis in DIO mice; assay type: in vivo, mouse; conditions: 6 weeks BID dosing
Excerpt: In the next series of studies (Examples 93-99), Male DIO mice were received at 12 weeks of age (from Taconic), and were single-housed at the testing facility and acclimated for at least 2 weeks. The mice were provided a high fat diet [Research Diet D12492 (60% Fat kcal)] while in the testing facility. Before the study initiation, the animals were randomized into 5 experimental groups by body weight. The vehicle group contained only 0.5% carboxymethylcellulose (medium viscosity)+0.25% Tween-80. The second group contained 10 mg/kg of the DPP-IV inhibitor Sitagliptin while the third group contained 30 mg/kg Compound 268. The fourth group contained the combination of 10 mg/kg Sitagliptin and 30 mg/kg Compound 268. The fifth group was the positive control for weight loss, Rimonabant. All mice were dosed BID at approximately 6:00 am and again at approximately 4:00 pm. The positive control rimonabant was administered at a dose of 10 mg/kg in the afternoon and the morning dosing was vehicle (no compound).
6-Week Dexa Analysis after Multiple Weeks of Dosing Compounds
Compounds of the present invention were dosed for multiple weeks and the mice were analyzed to determine whether weight loss seen in Example 93 was due to a loss in fat or lean mass.
In this example, the protocol from Example 93 was utilized. The day of experiment, the mice were anesthetized using 2.5% avertin [tert-amyl alcohol (Aldrich #15,256-3) and 2,2,2-tribromoethanol (Aldrich # T4, 840-2)]. Their body composition was assessed using the PIXImus2 X-ray unit (GE Lunar Corporation, Madison, Wis.) connected to a computer equipped with LUNAR PIXImus2 software. The head region of each mouse was excluded from the analysis. The following measurements were automatically measured or calculated by the PIXImus2 software: bone mineral density (BMD), bone mineral content (BMC), bone area (B Area), tissue area (T Area), percent fat, and total tissue mass (TTM). Fat mass, the percentage of lean mass, and lean mass, were calculated manually as follows: % Lean=100−% Fat Lean Mass=TTM×(100−% Fat) Fat Mass=TTM×% Fat

[2] = Absorption vs. first pass metabolism: Cmax in ICR mice with and without 1-aminobenzotriazole (ABT) pre-treatment; assay type: in vivo, mouse; conditions: 10 mg/kg p.o., ABT 150 mg/kg 2 h before
Description: Absorption Vs. First Pass Metabolism
In this study, we further examined the absorption as compared to first pass metabolism of the compounds of the present invention. ICR mice (Hilltop) were pre-treated with 1-aminobenzotriazole (ABT), a nonselective inhibitor of cytochrome P450 enzymes, to inhibit Cyp450-mediated degradation of the compounds in liver.
ABT was administered at 150 mg/kg in 5 mL/kg of 0.04% ethanol in 0.5% methyl cellulose (w/v) by oral gavage, 2 hours prior to test compound administration. The compounds (i.e., Compounds 56, 268, 249, 61, 126, and 199) were administered by oral gavage at 10 mg/kg in 10 mL/kg of 20% PEG400/80% (0.5% (w/v) CMC containing 0.25% (v/v) Tween 80) (v/v), 2 hours after the ABT treatment. Blood was collected via orbital bleeding at predose, 0.25, 0.5, 1, 2, and 4 hours post-dose and the quantification of compound levels in plasma was accomplished by means of LC-MS/MS analysis as described in Example 81. Reference compound “Propranolol” that is known to be metabolized by Cyp450 was used as a positive control.
FIG. 15 depicts the Cmax (nM) of the compounds of the present invention with and without ABT pre-treatment.

Compound	fat mass versus lean mass (DEXA) [1]	loss in weight / total tissue mass (DEXA) [1]	Cmax with versus without ABT pre-treatment [2]
N[C@@H](CC(=O)N1CCn2c(nnc2C(F)(F)F)C1)Cc1cc(F)c(F)cc1F [sitagliptin, Sitagliptin, reference compound]	due to a loss in the Fat Mass	about the same loss in weight	–
CC(C)NCC(O)COc1cccc2ccccc12 (stereo not drawn) [propranolol, Propranolol]	–	–	significantly higher in ABT pre-treated mice
